Measured values from the NIST ThermoML archive (doi:10.1016/j.fluid.2005.06.022).
Numbers after ± are expanded uncertainties.

Key:
[1] = refractive index (Na D-line) (dimensionless); conditions: 101.33 kPa, Liquid, Standard Abbe refractometry
[2] = Liquid; for molar volume: 101.33 kPa

SMILES | refractive index ([1]; 293.15 K) | molar volume ([2]; 293.15 K) | refractive index ([1]; 298.15 K) | molar volume ([2]; 298.15 K) | other results
N#Cc1cnccn1 [2-cyanopyrazine] | 1.534 ± 0.0012 | 8.952e-05 ± 5.2e-07 m3/mol |  |  | vapor or sublimation pressure ([2]; 476.05 K): 94.7 ± 4.8 kPa
Cc1cnccn1 [2-methylpyrazine] | 1.505 ± 0.0012 | 9.138e-05 ± 5.1e-07 m3/mol |  |  | vapor or sublimation pressure ([2]; 396.65 K): 94.7 ± 4.8 kPa
C=CC#N [acrylonitrile] |  |  | 1.3888 ± 0.0012 | 6.629e-05 ± 3.6e-07 m3/mol | vapor or sublimation pressure ([2]; 348.55 K): 94.7 ± 4.8 kPa
C1CCCCC1 [cyclohexane] |  |  | 1.4235 ± 0.0012 | 0.0001087 ± 5.9e-07 m3/mol | vapor or sublimation pressure ([2]; 351.85 K): 94.7 ± 4.8 kPa
O=C1CCCCC1 [cyclohexanone] | 1.451 ± 0.0012 | 0.0001038 ± 5.7e-07 m3/mol |  |  | vapor or sublimation pressure ([2]; 426.35 K): 94.7 ± 4.8 kPa; vapor or sublimation pressure ([2]; 426.85 K): 94.7 ± 4.8 kPa
ClC(Cl)(Cl)Cl [tetrachloromethane] |  |  | 1.4574 ± 0.0012 | 9.708e-05 ± 6e-07 m3/mol | vapor or sublimation pressure ([2]; 347.85 K): 94.7 ± 4.8 kPa
